For the data set, the system named is Rattus norvegicus. Nature of the data set: LD50 values was measured by using probit analysis method in rats. To be noted: in vivo. In kind it is ADME, organism-based.
For `C[N+](C)(C)NP(=O)(N[N+](C)(C)C)Oc1ccccc1.[I-].[I-]`, the LD50 came out at 2.37 µg/mL.

`C[N+](C)(C)NP(=O)(N[N+](C)(C)C)c1ccccc1.[I-].[I-]` returned an LD50 of 2.15 µg/mL.

As for `C[N+](C)(C)N=P([O-])(N[N+](C)(C)C)Oc1ccccc1.[I-]` (stereo unspecified), the LD50 is reported as ~ 15 ug ml-1.

Consider `C[N+](C)(C)N=P([O-])(N[N+](C)(C)C)c1ccccc1.[I-]` (stereo unspecified), for which the LD50 is given as ~ 15 ug ml-1.

Consider `C[N+](C)(C)[N-]P(=O)(N[N+](C)(C)C)Oc1ccccc1.[I-]` (stereo unspecified), for which the LD50 was 15 µg/mL.

Take `C[N+](C)(C)[N-]P(=O)(N[N+](C)(C)C)c1ccccc1.[I-]` (stereo unspecified): the LD50 is given as ~ 15 ug ml-1.

These data come from ChEMBL document CHEMBL1122992, “Phosphorus-nitrogen compounds. 26. Phosphaminimides. 2. 2,2'-Phosphinylidenebis(1,1,1-trimethylhydrazinium) iodide inner salts as agents affecting ganglionic transmission” (J Med Chem, 1985).
